This note sets out measurements from patent publication US20160129011A1, “BICYCLO 2,3-BENZODIAZEPINES AND SPIROCYCLICALLY SUBSTITUTED 2,3-BENZODIAZEPINES” (BAYER PHARMA AKTIENGESELLSCHAFT, priority 2013, published 2016).

Each structure is given as a SMILES string.

The target of one assay is T1, BRD4 (BD1) (Homo sapiens, UniProt O60885).
T1 construct: longer constructs also being possible, preferably amino acids 44-168; made in house; host or cells: E. coli
Kind of assay: Binding assay BRD4/acetylated peptide H4 (TR-FRET protein-protein interaction assay). Particulars: BRD4 (BD1) / acetylated histone H4 peptide. An excerpt:
To assess the BRD4 binding strength of the substances described in this application, the ability thereof to inhibit the interaction between BRD4 (BD1) and acetylated histone H4 in a dose-dependent manner was quantified.
For this purpose, a time-resolved fluorescence resonance energy transfer (TR-FRET) assay was used, which measures the binding between N-terminally His6-tagged BRD4 (BD1) (amino acids 67-152, longer constructs also being possible, preferably amino acids 44-168) and a synthetic acetylated histone H4 (Ac—H4) peptide with sequence GRGK(Ac)GGK(Ac)GLGK(Ac)GGAK(Ac)RHGSGSK-biotin. The recombinant BRD4 protein produced in-house according to Filippakopoulos et al., Nature, 2010, 468:1119-1123 was expressed in E. coli and purified by means of (Ni-NTA) affinity and (Sephadex G-75) size exclusion chromatography. The Ac—H4 peptide can be purchased, for example, from Biosyntan (Berlin, Germany).
In the assay, typically 11 different concentrations of each substance (0.1 nM, 0.33 nM, 1.1 nM, 3.8 nM, 13 nM, 44 nM, 0.15 μM, 0.51 μM, 1.7 μM, 5.9 μM and 20 μM) were analysed as duplicates on the same microtitre plate. For this purpose, 100-fold concentrated solutions in DMSO were prepared by serial dilutions (1:3.4) of a 2 mM stock solution into a clear, 384-well microtitre plate (Greiner Bio-One, Frickenhausen, Germany). From this, 50 nl were transferred into a black test plate (Greiner Bio-One, Frickenhausen, Germany). The test was started by the addition of 2 μl of a 2.5-fold concentrated BRD4 solution (final concentration typically 10 nM in the 5 μl of reaction volume) in aqueous assay buffer [50 mM HEPES pH 7.5, 50 mM sodium chloride (NaCl), 0.25 mM CHAPS and 0.05% serum albumin (BSA)] to the substances in the test plate. This was followed by a 10-minute incubation step at 22° C. for the pre-equilibration of putative complexes between BRD4 and the substances.
The mixture was then incubated in the dark at 22° C. for one hour and then at 4° C. for at least 3 hours and for no longer than overnight. The formation of BRD4/Ac—H4 complexes was determined by the measurement of the resonance energy transfer from the streptavidin-Eu cryptate to the anti-6His-XL665 antibody present in the reaction. For this purpose, the fluorescence emission was measured at 620 nm and 665 nm after excitation at 330-350 nm in a TR-FRET measuring instrument, for example a Rubystar or Pherastar (both from BMG Lab Technologies, Offenburg, Germany) or a Viewlux (Perkin-Elmer). The ratio of the emissions at 665 nm and at […] was taken as an indicator of the amount of BRD4/Ac—H4 complexes formed.
The data (ratios) obtained were normalized, with 0% inhibition corresponding to the mean from the measurements for a set of controls (typically 32 data points) in which all the reagents were present. In these, in place of test substances, 50 nl of DMSO (100%) were used. Inhibition of 100% corresponded to the mean from the measurements for a set of controls (typically 32 data points) in which all the reagents except BRD4 were present. The IC50 was determined by regression analysis based on a 4-parameter equation (minimum, maximum, IC50, Hill; Y=max+(min−max)/(1+(X/IC50)^Hill)).

A further assay has as its system MOLM-13 cells. Kind of assay: Cell proliferation assay (alamarBlue), MOLM-13. Particulars: Homo sapiens, MOLM-13; acute myeloid leukaemia cell line, 96 h incubation. Format: cell-based. Here is the method:
In accordance with the invention, the ability of the substances to inhibit cell proliferation was determined. Cell viability was determined by means of the alamarBlue® reagent (Invitrogen) in a Victor X3 Multilabel Reader (Perkin Elmer). The excitation wavelength was 530 nm and the emission wavelength […].
The MOLM-13 cells (DSMZ, ACC 554) were sown at a concentration of 4000 cells/well in 100 μl of growth medium (RPMI1640, 10% FCS) on 96-well microtitre plates.
The MDA-MB-231 cells (DSMZ, ACC 732) were sown at a concentration of 4000 cells/well in 100 μl of growth medium (DMEM/Ham's F12 medium, 10% FCS) on 96-well microtitre plates. After overnight incubation at 37° C., the fluorescence values (CI values) were determined. Then the plates were treated with various substance dilutions (1E-5 M, 3E-6 M, 1E-6 M, 3E-7 M, 1E-7 M, 3E-8 M, 1E-8 M) and incubated at 37° C. for 72 (MV4-11, LOX-IMVI cells), 96 (MOLM-13, B16F10, […] cells), 120 (MOLP-8, KMS-12-PE cells) or 168 (LAPC-4 cells) hours. Subsequently, the fluorescence values were determined (CO values). For the data analysis, the CI values were subtracted from the CO values and the results were compared between cells which had been treated with various dilutions of the substance or only with buffer solution. This was used to calculate the IC50 values (substance concentration required for 50% inhibition of cell proliferation).
The substances were examined in the cell lines of Table 1 which, in an exemplary manner, represent the stated indications: […]

Broadly, the IC50 is the concentration that gives 50% inhibition. As for `CNC(=O)N1N=C(c2ccc(N3CC4(CCS4(=O)=O)C3)cc2)c2cc(OC)c(OC)cc2CC1C` (racemic) [Example 3, 1-[4-(1,1-dioxido-1-thia-6-azaspiro[3.3]hept-6-yl)phenyl]-7,8-dimethoxy-N,4-dimethyl-4,5-dihydro-3H-2,3-benzodiazepine-3-carboxamide], the IC50 at BRD4 (BD1) was determined as 20 nM; in the assay with MOLM-13 cells, 150 nM.
For `CNC(=O)N1N=C(c2ccc(N3C[C@H]4CC[C@@H](C3)O4)cc2)c2cc(OC)c(OC)cc2CC1C` (mixture of isomers) [Example 4, (±)-7,8-dimethoxy-N,4-dimethyl-1-[4-(8-oxa-3-azabicyclo[3.2.1]oct-3-yl)phenyl]-4,5-dihydro-3H-2,3-benzodiazepine-3-carboxamide], in that order: 30 nM and 100 nM.
For `CNC(=O)N1N=C(c2ccc(N3CC4(COC4)C3)cc2)c2cc(OC)c(OC)cc2CC1C` (racemic) [Example 5, (±)-7,8-dimethoxy-N,4-dimethyl-1-[4-(2-oxa-6-azaspiro[3.3]hept-6-yl)phenyl]-4,5-dihydro-3H-2,3-benzodiazepine-3-carboxamide], in that order: 20 nM and 210 nM.
As for `CNC(=O)N1N=C(c2ccc(N3[C@@H]4CC[C@H]3CC(=O)C4)cc2)c2cc(OC)c(OC)cc2CC1C` (mixture of isomers) [Example 6, (±)-7,8-dimethoxy-N,4-dimethyl-1-[4-(3-oxo-8-azabicyclo[3.2.1]oct-8-yl)phenyl]-4,5-dihydro-3H-2,3-benzodiazepine-3-carboxamide], the IC50 at BRD4 (BD1) is 30 nM; in the assay on MOLM-13 cells, 180 nM.
For `CNC(=O)N1N=C(c2cccc(N3CC4CCC(C3)O4)c2)c2cc(OC)c(OC)cc2CC1C` (racemic) [Example 13, (±)-7,8-dimethoxy-N,4-dimethyl-1-[3-(8-oxa-3-azabicyclo[3.2.1]oct-3-yl)phenyl]-4,5-dihydro-3H-2,3-benzodiazepine-3-carboxamide], in that order: 90 nM and 560 nM.
Consider `CNC(=O)N1N=C(c2ccc(-c3ccc4c(c3)OCCO4)cc2)c2cc(OC)c(OC)cc2CC1C` (racemic) [Example 21, (±)-1-[4-(2,3-dihydro-1,4-benzodioxin-6-yl)phenyl]-7,8-dimethoxy-N,4-dimethyl-4,5-dihydro-3H-2,3-benzodiazepine-3-carboxamide], for which the IC50 on BRD4 (BD1) came to 90 nM; with MOLM-13 cells, 710 nM.
`CNC(=O)N1N=C(c2ccc(-c3ccc4c(c3)CCO4)cc2)c2cc(OC)c(OC)cc2CC1C` (racemic) [Example 22, (±)-1-[4-(2,3-dihydro-1-benzofuran-5-yl)phenyl]-7,8-dimethoxy-N,4-dimethyl-4,5-dihydro-3H-2,3-benzodiazepine-3-carboxamide]: the IC50 is 50 nM on BRD4 (BD1) and 550 nM in the assay on MOLM-13 cells.
As for `CNC(=O)N1N=C(c2ccc(-c3cccc4ncccc34)cc2)c2cc(OC)c(OC)cc2CC1C` (racemic) [Example 23, (±)-1-[4-(quinolin-5-yl)phenyl]-7,8-dimethoxy-N,4-dimethyl-4,5-dihydro-3H-2,3-benzodiazepine-3-carboxamide], the IC50 at BRD4 (BD1) worked out at 60 nM; in the assay on MOLM-13 cells it was 250 nM.
For `CNC(=O)N1N=C(c2ccc(-c3ccnc4ccccc34)cc2)c2cc(OC)c(OC)cc2CC1C` (racemic) [Example 24, (±)-1-[4-(quinolin-4-yl)phenyl]-7,8-dimethoxy-N,4-dimethyl-4,5-dihydro-3H-2,3-benzodiazepine-3-carboxamide], in that order: 70 nM and 390 nM.
With `CNC(=O)N1N=C(c2ccc(-c3ccc4c(ccn4C)c3)cc2)c2cc(OC)c(OC)cc2CC1C` (racemic) [Example 25, (±)-7,8-dimethoxy-N,4-dimethyl-1-[4-(1-methyl-1H-indol-5-yl)phenyl]-4,5-dihydro-3H-2,3-benzodiazepine-3-carboxamide], the IC50 came to 50 nM on BRD4 (BD1) and 530 nM with MOLM-13 cells.
Consider `CNC(=O)N1N=C(c2ccc(-c3cncc4ccccc34)cc2)c2cc(OC)c(OC)cc2CC1C` (racemic) [Example 26, (±)-1-[4-(isoquinolin-4-yl)phenyl]-7,8-dimethoxy-N,4-dimethyl-4,5-dihydro-3H-2,3-benzodiazepine-3-carboxamide], for which the IC50 stood at 60 nM on BRD4 (BD1) and 550 nM in the assay with MOLM-13 cells.
For `CNC(=O)N1N=C(c2ccc(N3C(=O)C4CCC3C4)cc2)c2cc(OC)c(OC)cc2CC1C` (stereo not drawn) [Example 1, [1S-(1R*,4S*)]-7,8-Dimethoxy-N,4-dimethyl-1-[4-(3-oxo-2-azabicyclo[2.2.1]hept-2-yl)phenyl]-4,5-dihydro-3H-2,3-benzodiazepine-3-carboxamide], in that order: 30 nM and 140 nM.
For `CNC(=O)N1N=C(c2ccc(N3C[C@H]4CC[C@@H](C3)O4)cc2)c2cc(OC)c(OC)cc2C[C@H]1C` [Example 4.1, (4R)-7,8-dimethoxy-N,4-dimethyl-1-[4-(8-oxa-3-azabicyclo[3.2.1]oct-3-yl)phenyl]-4,5-dihydro-3H-2,3-benzodiazepine-3-carboxamide], in that order: 1850 nM and 6090 nM.
For `CNC(=O)N1N=C(c2ccc(N3CC4(COC4)C3)cc2)c2cc(OC)c(OC)cc2C[C@@H]1C` [Example 5.1, (4S)-7,8-dimethoxy-N,4-dimethyl-1-[4-(2-oxa-6-azaspiro[3.3]hept-6-yl)phenyl]-4,5-dihydro-3H-2,3-benzodiazepine-3-carboxamide], in that order: 20 nM and 110 nM.
In the case of `CNC(=O)N1N=C(c2ccc(N3[C@@H]4CC[C@H]3CC(=O)C4)cc2)c2cc(OC)c(OC)cc2C[C@H]1C` [Example 6.1, (4R)-7,8-dimethoxy-N,4 dimethyl-1-[4-(3-oxo-8-azabicyclo[3.2.1]oct-8-yl)phenyl]-4,5-dihydro-3H-2,3-benzodiazepine-3-carboxamide], the results for the IC50 at BRD4 (BD1) and in the assay with MOLM-13 cells were 1230 nM and 450 nM, respectively.
For `CNC(=O)N1N=C(c2ccc(N3[C@@H]4CC[C@H]3CC(=O)C4)cc2)c2cc(OC)c(OC)cc2C[C@@H]1C` [Example 6.2, (4S)-7,8-dimethoxy-N,4-dimethyl-1-[4-(3-oxo-8-azabicyclo[3.2.1]oct-8-yl)phenyl]-4,5-dihydro-3H-2,3-benzodiazepine-3-carboxamide], in that order: 20 nM and 50 nM.
